Data from patent publication US9449726B2, “100Mo compounds as accelerator targets for production of 99mTc” (Washington University, priority 2013, dated 2016).
“Also recorded” adds a separate entry of the source.

System: normal CD1 mice
Test: SPECT/CT imaging of ^99mTc-MDP in small animals
Type: in vivo
Protocol: Preparation of ^99mTc-methylene diphosphonate (^99mTc-MDP) and Animal Imaging Studies. All animal studies were approved by the Animal Studies Committee at Washington University. ^99mTc-MDP was prepared using commercially available kits. 3.9 mg of a sterile lyophilized powder containing methylene diphosphonate as the main constituent, under the trade name MDP-BRACCO™ (Bracco Diagnostics Inc., Princeton, N.J.) was dissolved in 135 μL saline solution. From this solution 10 μL was pipetted and added to the 400 μL of 1.6×10^8Bq (4.3 mCi)^99mTcO4^− containing saline solution. Radio-ITLC was performed on this solution as described above. 100 μL of the prepared radiopharmaceutical with an activity of 2.0×10^7 Bq (0.55 mCi) was injected into one month old normal CD1 mice via tail vein followed by small animal SPECT/CT imaging (nanoSPECT, Bioscan, Washington D.C.). CT scans were performed using a tube voltage of 45 kV and a scan time of 1.5 seconds per projection while the animals were anesthetized by isofluorane. SPECT data were collected by monitoring in as helical scan at 45 projections and 60 seconds per projection using a 9-pinhole low energy collimator. SPECT images were collected for 45 minutes at 1.5, 3 and 4 hours post injection. The CT and SPECT images were reconstructed and colocalized using InVivoScope (inviCRO, LLC, Boston Mass.) and HiSPECT (Bioscan, Washington, D.C.).
In these experiments, activities of 2.0×10^7Bq of ^99mTc were injected into each mouse. Scan times of 45 minutes were employed in imaging while each mouse was anesthetized with isoflurane. FIG. 5 illustrates SPECT images of mice imaged at (a) 1.5 hours (b) 3 hours and (c) 4 hours post injection.

SMILES: O.O.O=P([O-])([O-])CP(=O)([O-])[O-].[99Tc+4] [^99mTc-MDP, ^99mTc-methylene diphosphonate]
- SPECT images: uniformity of uptake in the backbone (CD1 mice, tail vein): relatively uniform
- SPECT images: activity at the earliest time point (CD1 mice, tail vein, 1.5 hours post injection (FIG. 5A)): activity in the kidneys and bladder as expected; also recorded: activity was seen in the excretory organs as shown in FIG. 5A, namely the kidneys and bladder
- SPECT images: change of activity as time progressed (CD1 mice, tail vein, 3 hours and 4 hours post injection (FIGS. 5B and 5C)): clearance of radioactivity from these organs and increased accumulation in the bones and joints
- SPECT images: regional uptake in the skeleton (CD1 mice, tail vein, backbone and joints): high activity uptake in the cervical, thoracic and lumbar regions of the backbone and major joints
- SPECT images: tissue uptake of ^99mTc (one month old normal CD1 mice, tail vein injection, 2.0×10^7 Bq (0.55 mCi), imaged 1.5, 3 and 4 hours post injection): accumulation of ^99mTc in the bones and joints; also recorded: uptake of the ^99mTc in the bones as expected
